Assays:
Format in all cases: cell-based
Klebsiella pneumonia = experiment: MIC against Gram-negative bacteria: Klebsiella pneumonia; settings: 5×10^5 CFU/mL
Summary of the method: (§1)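 Inocula prepared by growing LB cultures at 37° C to 0.5 McFarland, centrifuging at 4000×g, and resuspending in fresh medium. Final density 5×10^5 CFU/mL per well with two-fold dilutions of purified EGF domain protein; shaking incubation at 37° C.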

Moraxella catarrhalis = experiment: MIC against Gram-negative bacteria: Moraxella catarrhalis; settings: 5×10^5 CFU/mL
Summary of the method: as §1

Aeromonas hydrophila = experiment: MIC against Gram-negative bacteria: Aeromonas hydrophila; settings: 5×10^5 CFU/mL
Summary of the method: as §1

Pseudomonas aeruginosa = experiment: MIC against Gram-negative bacteria: Pseudomonas aeruginosa; settings: 5×10^5 CFU/mL
Summary of the method: as §1

Enterobacter cloacae = experiment: MIC against Gram-negative bacteria: Enterobacter cloacae; settings: 5×10^5 CFU/mL
Summary of the method: as §1

Proteus mirabilis = experiment: MIC against Gram-negative bacteria: Proteus mirabilis; settings: 5×10^5 CFU/mL
Summary of the method: as §1

E. coli BL21 = experiment: MIC against Gram-negative bacteria: E. coli BL21; settings: 5×10^5 CFU/mL
Summary of the method: as §1

Citrobacter diversus = experiment: MIC against Gram-negative bacteria: Citrobacter diversus; settings: 5×10^5 CFU/mL
Summary of the method: as §1

Serratia marcescens = experiment: MIC against Gram-negative bacteria: Serratia marcescens; settings: 5×10^5 CFU/mL
Summary of the method: as §1

E. coli DH5α = experiment: Antibacterial activity: MIC and growth curve against E. coli DH5α in 96-well plate; settings: minimal inhibitory concentration against E. coli DH5α; 96-well plate, 5×10^5 CFU/mL, 37° C., judged after 8 h
Summary of the method: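 Log-phase bacteria (OD600 ~0.5) resuspended in LB at 5×10^5 CFU/mL, exposed to recombinant protein at 50, 25, 12.5 μg/mL final in triplicate, 37 °C shaking at 175 rpm. OD600 read every 30 min; MIC is lowest concentration showing no growth.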

Proteus vulgaris = experiment: MIC against Gram-negative bacteria: Proteus vulgaris; settings: 5×10^5 CFU/mL
Summary of the method: as §1

[1] = K. pneumonia, 10 h cultivation at 37° C.
[2] = M. catarrhalis, 10 h cultivation at 37° C.
[3] = A. hydrophila, 10 h cultivation at 37° C.
[4] = P. aeruginosa, 10 h cultivation at 37° C.
[5] = E. cloacae, 10 h cultivation at 37° C.
[6] = P. mirabilis, 10 h cultivation at 37° C.
[7] = E. coli BL21, 10 h cultivation at 37° C.
[8] = C. diversus, 10 h cultivation at 37° C.
[9] = S. marcescens, 10 h cultivation at 37° C.
[10] = P. vulgaris, 10 h cultivation at 37° C.

Substance: PRT428 (DVNECWASPGRLCQHTCENTLGSYRCSCASGFLLAADGKRCE; listed as Homo sapiens)
- MIC (Klebsiella pneumonia; [1]): 25 µg/mL
- MIC (Moraxella catarrhalis; [2]): 50 µg/mL
- MIC (Aeromonas hydrophila; [3]): 25 µg/mL
- MIC (Pseudomonas aeruginosa; [4]): 12.5 µg/mL
- MIC (Enterobacter cloacae; [5]): 50 µg/mL
- MIC (Proteus mirabilis; [6]): 12.5 µg/mL
- MIC (E. coli BL21; [7]): 25 µg/mL
- MIC (Citrobacter diversus; [8]): 12.5 µg/mL
- MIC (Serratia marcescens; [9]): 12.5 µg/mL
- MIC (E. coli DH5α): 50 µg/mL
- MIC (Proteus vulgaris; [10]): 50 µg/mL

Substance: PRT1347 (NVDECLSQPCKNGATCKDGANSFRCLCAAGFTGSHCE; listed as Homo sapiens)
- MIC against K. pneumonia (Klebsiella pneumonia; Klebsiella pneumonia, 10 h cultivation at 37° C.): 50 µg/mL
- MIC against M. catarrhalis (Moraxella catarrhalis; Moraxella catarrhalis, 10 h cultivation at 37° C.): 25 µg/mL
- MIC against A. hydrophila (Aeromonas hydrophila; Aeromonas hydrophila, 10 h cultivation at 37° C.): 25 µg/mL
- MIC against P. aeruginosa (Pseudomonas aeruginosa; Pseudomonas aeruginosa, 10 h cultivation at 37° C.): 25 µg/mL
- MIC against E. cloacae (Enterobacter cloacae; Enterobacter cloacae, 10 h cultivation at 37° C.): 25 µg/mL
- MIC against P. mirabilis (Proteus mirabilis; Proteus mirabilis, 10 h cultivation at 37° C.): 50 µg/mL
- MIC against E. coli BL21 (E. coli BL21; [7]): 12.5 µg/mL
- MIC against C. diversus (Citrobacter diversus; Citrobacter diversus, 10 h cultivation at 37° C.): 12.5 µg/mL
- MIC against S. marcescens (Serratia marcescens; Serratia marcescens, 10 h cultivation at 37° C.): 12.5 µg/mL
- MIC (E. coli DH5α): 25 µg/mL
- MIC against P. vulgaris (Proteus vulgaris; Proteus vulgaris, 10 h cultivation at 37° C.): 100 µg/mL

Substance: PRT760 (KLDSCALGDHGCEHSCVSSEDSFVCQCFEGYILREDGKTCR; listed as Homo sapiens)
- MIC (μg/mL) K. pneumonia (Klebsiella pneumonia; [1]): 50 µg/mL
- MIC (μg/mL) M. catarrhalis (Moraxella catarrhalis; [2]): 50 µg/mL
- MIC (μg/mL) A. hydrophila (Aeromonas hydrophila; [3]): 50 µg/mL
- MIC (μg/mL) P. aeruginosa (Pseudomonas aeruginosa; [4]): 12.5 µg/mL
- MIC (μg/mL) E. cloacae (Enterobacter cloacae; [5]): 12.5 µg/mL
- MIC (μg/mL) P. mirabilis (Proteus mirabilis; [6]): 12.5 µg/mL
- MIC (μg/mL) E. coli BL21 (E. coli BL21; [7]): 25 µg/mL
- MIC (μg/mL) C. diversus (Citrobacter diversus; [8]): 12.5 µg/mL
- MIC (μg/mL) S. marcescens (Serratia marcescens; [9]): 12.5 µg/mL
- MIC (E. coli DH5α): 50 µg/mL
- MIC (μg/mL) P. vulgaris (Proteus vulgaris; [10]): 50 µg/mL

Substance: PRT482 (ECIDDETEEICGGHGKCYCGNCYCKAGWHGDKCE; listed as Homo sapiens)
- MIC against K. pneumonia (Klebsiella pneumonia; 96-well plate, 37° C., 10 h): 12.5 µg/mL
- MIC against M. catarrhalis (Moraxella catarrhalis; 96-well plate, 37° C., 10 h): 12.5 µg/mL
- MIC against A. hydrophila (Aeromonas hydrophila; 96-well plate, 37° C., 10 h): 50 µg/mL
- MIC against P. aeruginosa (Pseudomonas aeruginosa; 96-well plate, 37° C., 10 h): 50 µg/mL
- MIC against E. cloacae (Enterobacter cloacae; 96-well plate, 37° C., 10 h): 25 µg/mL
- MIC against P. mirabilis (Proteus mirabilis; 96-well plate, 37° C., 10 h): 25 µg/mL
- MIC against E. coli BL21 (E. coli BL21; 96-well plate, 37° C., 10 h): 12.5 µg/mL
- MIC against C. diversus (Citrobacter diversus; 96-well plate, 37° C., 10 h): 25 µg/mL
- MIC against S. marcescens (Serratia marcescens; 96-well plate, 37° C., 10 h): 25 µg/mL
- MIC (E. coli DH5α): 50 µg/mL
- MIC against P. vulgaris (Proteus vulgaris; 96-well plate, 37° C., 10 h): 50 µg/mL

Substance: PRT1231 (IGPSCLKFCSGRGQCTRHGCKCDPGFSGPACE; listed as Homo sapiens)
- MIC against K. pneumonia (Klebsiella pneumonia; Klebsiella pneumonia, 96-well plate, 37° C., 10 h): 12.5 µg/mL
- MIC against M. catarrhalis (Moraxella catarrhalis; Moraxella catarrhalis, 96-well plate, 37° C., 10 h): 12.5 µg/mL
- MIC against A. hydrophila (Aeromonas hydrophila; Aeromonas hydrophila, 96-well plate, 37° C., 10 h): 100 µg/mL
- MIC against P. aeruginosa (Pseudomonas aeruginosa; Pseudomonas aeruginosa, 96-well plate, 37° C., 10 h): 50 µg/mL
- MIC against E. cloacae (Enterobacter cloacae; Enterobacter cloacae, 96-well plate, 37° C., 10 h): 50 µg/mL
- MIC against P. mirabilis (Proteus mirabilis; Proteus mirabilis, 96-well plate, 37° C., 10 h): 50 µg/mL
- MIC against E. coli BL21 (E. coli BL21; E. coli BL21, 96-well plate, 37° C., 10 h): 25 µg/mL
- MIC against C. diversus (Citrobacter diversus; Citrobacter diversus, 96-well plate, 37° C., 10 h): 50 µg/mL
- MIC against S. marcescens (Serratia marcescens; Serratia marcescens, 96-well plate, 37° C., 10 h): 25 µg/mL
- MIC (E. coli DH5α): 12.5 µg/mL
- MIC against P. vulgaris (Proteus vulgaris; Proteus vulgaris, 96-well plate, 37° C., 10 h): 12.5 µg/mL
